Reference: patent US6245968A, “Mutated hydroxyphenylpyruvate dioxygenase, DNA sequence and isolation of plants which contain such a gene and which are tolerant to herbicides” (Aventis CropScience S.A., priority 1997, dated 2001)

Columns and labels:
[1] = system: O=C(O)C(=O)Cc1ccc(O)cc1; assay: HPPD activity by HPLC determination of homogentisate (Km, IC50); assay type: biochemical; settings: other: Km of the HPPD for HPP, crude extract, 30° C., pH7.5, pH 7.5
Description: (§1) Glycine318, replaced with asparagine, designated SyN318, similar to PfD334 (in Example 3).
(§2) The mutants SyN318 and SyA318 which were obtained in the previous example were examined, in comparison with the unmutated HPPD of Synechocystis, for the biochemical characteristics Km and IC50 with regard to an HPPD inhibitor, i.e. 2-cyano-3-cyclopropyl-1-(2-methylsulphonyl-4-trifluoromethylphenyl)propane-1,3-dione. This analysis was carried out using the following protocol:
(§3) The HPPD activity is measured by determining, by means of high performance liquid chromatography (HPLC), the quantity of product, i.e. homogentisate,which is formed after incubating the enzyme with its substrate HPP. Injecting different amounts of homogentisate, varying from 12 to 48 nmoles, into the column enables the retention time of the homogentisate to be determined and the peak area to be correlated with the quantity of product injected.
(§4) The activity measurements are carried out in a final volume of […] containing: 12.6 mM ascorbate, […] iron (FeH8N2O8S2,6H2O) (previously prepared in 0.1 M tris-acetate buffer, pH6), […] of crude extract containing the HPPD, […] HPP and 0.1 M tris-acetate buffer, pH7.5. The enzyme is firstly incubated with the iron at 30° C. for 1 min and then with the ascorbate at 30° C. for 5 min before the reaction is started by adding the substrate, i.e. the HPP. The incubation is continued at 30° C. for 1 min 30sec and the reaction is then stopped by adding […] of 20% perchloric acid. The proteins are then removed by centrifuging for 5min at 15,300 rpm and at 20° C. The supernatant is recovered. The quantity of homogentisate formed is then analysed by injecting […] of assay mixture into a Pico TagC18 column which is connected to the HPLC system. […] On leaving the column, the homogentisate is detected by measuring absorbance at 288 nm. The quantity of product formed is defined by the area of the peak on the chromatogram.
(§5) The Km of the HPPD for HPP is determined by measuring the initial velocity of the reaction using different concentrations of HPP. […]

[2] = system: O=C(O)C(=O)Cc1ccc(O)cc1; assay: as above; assay type: biochemical; settings: other: Km of the HPPD for HPP, crude extract, 30° C., pH7.5, pH 7.5; remark: listed apart in the source
Description: (§6) Glycine318, replaced with alanine, designated SyA318, similar to PfA334 (in Example 3).
as §2, §3, §4, §5

[3] = system: O=C(O)C(=O)Cc1ccc(O)cc1; assay: cells, lysate or membranes named; settings: other: Km of the HPPD for HPP, crude extract, 30° C., pH7.5, pH 7.5
[4] = system: Synechocystis PCC6803 HPPD variant SyN318 (Glycine318 replaced with asparagine); assay: HPPD activity by HPLC determination of homogentisate (Km, IC50); assay type: biochemical; settings: SyN318 versus unmutated Synechocystis HPPD; 10 min
Description: as §1, §2, §3, §4, §5

[5] = target: T1, Synechocystis PCC6803 HPPD variant SyN318 (Glycine318 replaced with asparagine) (Synechocystis sp., UniProt Q55810, G318N); assay: as above; assay type: biochemical
T1 construct: made in house; host or cells: E. coli, vector ptrc-99 A; crude extract (JM105 is named for the unmutated plasmid)
Description: as §1, §2, §3, §4, §5

[6] = target: T1, Synechocystis PCC6803 HPPD variant SyN318 (Glycine318 replaced with asparagine); assay: Colorimetric screening test (browning of medium) in E. coli; assay type: cell-based; settings: 7 mM inhibitor
Description: (§7) A culture medium of the YT broth type, containing 1% agarose (Gibco BRL ultra pure), 5 mM L-tyrosine (Sigma) and the agent for selecting the above mentioned pRPC vector, is dispensed into a 96-well plate at the rate of […] per well. 10 microliter of a culture of E.coli in the exponential phase of growth and harbouring the pRPC vector are dispensed into each well. After 16 hours at 37° C., the wells which only contain the culture medium, or those which have been seeded with an E. coli culture harbouring the vector pKK233-2, are translucent whereas the wells which have been seeded with an E. coli culture harbouring the vector pRPC are coloured brown.
(§8) With several mutants at position 334 in Pseudomonas fluorescens having been obtained, two site-directed mutagenesis experiments (U.S.E., Pharmacia) were carried out using the oligonucleotides MUGLYA and MUGLYB, which oligonucleotides were intended to replace the glycine at position 318 (of Synechocystis corresponding to the glycine at position 334 of P.fluorescens) either with an asparagine or a serine or with a proline or an alanine (SEQ ID NO 18 and 19).
(§9) One mutant from each experiment was sequenced.
as §1

[7] = system: Pseudomonas fluorescens A32 HPPD, wild type (unmutated, vector pRPC); assay: as above; assay type: cell-based; settings: 7 mM inhibitor
Source text: The vector pRPA (described in application WO96/38567), which contains a genomic DNA fragment and the coding region of the gene for HPPD from Pseudomonas fluorescens A32, was digested with NcoI, purified and then ligated into the expression vector pKK233-2 (Clontech), which itself was digested with NcoI, the site for which forms a unique cloning site in this vector. The orientation of the gene in the resulting pRPC vector which permitted expression under the control of the trc promoter was verified.
as §7, with “brown. […]” for “brown.”

[8] = system: Synechocystis PCC6803 HPPD variant SyA318 (Glycine318 replaced with alanine); assay: HPPD activity by HPLC determination of homogentisate (Km, IC50); assay type: biochemical; settings: SyA318 versus unmutated Synechocystis HPPD; 10 min
Description: as §6, §2, §3, §4, §5

[9] = target: T2, Synechocystis PCC6803 HPPD variant SyA318 (Glycine318 replaced with alanine) (Synechocystis sp., UniProt Q55810, G318A); assay: as above; assay type: biochemical
T2 construct: made in house; host or cells: E. coli, vector ptrc-99 A; crude extract (JM105 is named for the unmutated plasmid)
Description: as §6, §2, §3, §4, §5

[10] = target: Synechocystis PCC6803 HPPD, native (unmutated) (Synechocystis sp., UniProt Q55810); assay: as above
[11] = target: T3, Synechocystis PCC6803 HPPD, unmutated (Synechocystis sp., UniProt Q55810); assay: Colorimetric screening test (browning of medium) in E. coli; assay type: cell-based; settings: 7 mM inhibitor, 1 mM IPTG
T3 construct: expressed in transfected cells; host or cells: E. coli JM105, vector ptrc-99 A, IPTG-induced
T3 sequence (Q55810 1-339): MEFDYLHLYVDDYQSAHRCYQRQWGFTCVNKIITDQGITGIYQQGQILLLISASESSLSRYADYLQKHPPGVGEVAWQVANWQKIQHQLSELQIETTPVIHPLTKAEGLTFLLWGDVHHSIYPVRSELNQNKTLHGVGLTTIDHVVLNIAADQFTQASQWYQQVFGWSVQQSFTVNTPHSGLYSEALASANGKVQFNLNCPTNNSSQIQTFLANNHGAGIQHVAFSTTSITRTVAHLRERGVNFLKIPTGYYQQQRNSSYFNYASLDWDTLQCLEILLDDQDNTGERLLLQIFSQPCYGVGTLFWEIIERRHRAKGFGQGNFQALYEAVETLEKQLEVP
Description: as §7
The dioxygenase activity of the Synechocystis HPPD which had thus been obtained was observed by the browning of the medium, using the previously described colorimetric test, with addition of IPTG (isopropyl-b-D-thiogalactopyranoside) at a concentration of 1 mM in order to induce expression of the protein.

[12] = system: Pseudomonas fluorescens A32 HPPD variant PfW334 (Glycine334 replaced by tryptophan); assay: as above; assay type: cell-based; settings: 7 mM inhibitor, score 0 to 10
Description: as §7
(§10) A series of samples was made up with identical culture medium which contained varying concentrations (0 mM to 14 mM) of 2-cyano-3-cyclopropyl-1-(2-methylsulphonyl-4-trifluoromethylphenyl)propane-1,3-dione (EP 0496631), which was dissolved in water and brought to pH7.5. This molecule is a diketonitrile which is recognized as being an effective inhibitor of HPPD activity (Pallett, K. E. et al., 1997. Pestic. Sci. 50, 83-84).

[13] = system: Pseudomonas fluorescens A32 HPPD variant PfL215 (proline 215 replaced by leucine); assay: as above; assay type: cell-based; settings: 7 mM inhibitor, score 0 to 10
Description: as §7, §10

[14] = system: Pseudomonas fluorescens A32 HPPD variant PfE298 (Gly298 replaced by glutamic acid); assay: as above; assay type: cell-based; settings: 7 mM inhibitor
Description: as §7, §10

[15] = system: Pseudomonas fluorescens A32 HPPD variant PfL333 (Phenylalanine333 replaced by leucine); assay: as above; assay type: cell-based; settings: 7 mM inhibitor, score 0 to 10
Description: as §7, §10

[16] = system: Pseudomonas fluorescens A32 HPPD variant PfD334 (Glycine334 replaced by aspartic acid); assay: as above; assay type: cell-based; settings: 7 mM inhibitor, score 0 to 10
Description: as §7, §10

[17] = system: Pseudomonas fluorescens A32 HPPD variant PfP334 (Glycine334 replaced by proline); assay: as above; assay type: cell-based; settings: 7 mM inhibitor, score 0 to 10
Description: as §7, §10

[18] = system: Pseudomonas fluorescens A32 HPPD variant PfS334 (Glycine334 replaced by serine); assay: as above; assay type: cell-based; settings: 7 mM inhibitor, score 0 to 10
Description: as §7, §10

[19] = target: T2, Synechocystis PCC6803 HPPD variant SyA318 (Glycine318 replaced with alanine); assay: as above; assay type: cell-based; settings: 7 mM inhibitor
Description: as §7, §8, §9, §6

In the case of “Synechocystis PCC6803 HPPD variant SyN318 (Glycine318 replaced with asparagine) (Synechocystis sp. PCC 6803 substr. Kazusa; G318N)”, the Km [1] is reported as 470 µM.
“Synechocystis PCC6803 HPPD variant SyA318 (Glycine318 replaced with alanine) (Synechocystis sp. PCC 6803 substr. Kazusa; G318A)” gave a Km [2] of 320 µM.
Work on “Synechocystis PCC6803 HPPD, native (unmutated) (Synechocystis sp. PCC 6803 substr. Kazusa)” yielded a Km [3] of 60 µM.
With CS(=O)(=O)c1cc(C(F)(F)F)ccc1C(=O)C(C#N)C(=O)C1CC1 (stereo not drawn) [2-cyano-3-cyclopropyl-1-(2-methylsulphonyl-4-trifluoromethylphenyl)propane-1,3-dione] the “ratio of the IC50 of a mutant HPPD to the IC50 of the non-mutant HPPD” value [4] was 1000, the IC50 [5] was 80 µM and the “browning of the screening medium” value [6] was “caused browning of the screening medium”. For the same compound, the “colour of the bacterial culture in the colorimetric test” value ([7]; dissolved in water, pH7.5) was “totally without colour”, the “Activity in the screening test using a selective agent dose of 7 mM” value ([7]; score 0 to 10) was 0 and the “ratio of the IC50 of a mutant HPPD to the IC50 of the non-mutant HPPD” value [8] was 500. The IC50 [9] was 40 µM, the IC50 [10] was 0.08 µM and the “browning of the medium in the colorimetric test” value [11] was “no browning of the medium”. The “Activity in the screening test using a selective agent dose of 7 mM” value [12] was 6, the “Activity in the screening test using a selective agent dose of 7 mM” value [13] was 7 and the “colour of the screening medium” value [14] was “turn brown”. For the same compound, the “Activity in the screening test using a selective agent dose of 7 mM” value ([14]; score 0 to 10) was 3, the “Activity in the screening test using a selective agent dose of 7 mM” value [15] was 4 and the “Activity in the screening test using a selective agent dose of 7 mM” value [16] was 1. The “Activity in the screening test using a selective agent dose of 7 mM” value [17] was 5, the “Activity in the screening test using a selective agent dose of 7 mM” value [18] was 7 and the “browning of the screening medium” value [19] was “caused browning of the screening medium”.
